From patent US20090105316A1, “Biphenyl Thiazole Carboxamides” (Bayer CropScience AG, priority 2004, published 2009)

Assay: Log P determination by HPLC on a reversed-phase column (EEC Directive 79/831, Annex V.A8)
Type: physicochemical
Details: reversed-phase HPLC column (C 18); pH 2.3
Procedure: The determination of the Log P values occurred according to EEC Directive 79/831, Annex V.A8 using HPLC (High Performance Liquid Chromatography) on a reversed-phase column (C 18). Temperature: 43° C. Eluents for determination in the acidic range (pH 2.3): 0.1% aqueous phosphoric acid, acetonitrile; linear gradient of 10% acetonitrile to 90% acetonitrile. Calibration took place using unbranched alkane-2-ones (with 3 to 16 carbon atoms) with known Log P values (the Log P values were determined on the basis of the retention times by way of linear interpolation between two consecutive alkanones).

SMILES: Cc1ccc(-c2cc(C(F)(F)F)ccc2NC(=O)c2sc(C)nc2C(F)(F)F)cc1 [Compound 1.15, 2-methyl-N-[4′-methyl-5-(trifluoromethyl)biphenyl-2-yl]-4-(trifluoromethyl)-1,3-thiazole-5-carboxamide]
- chromatographic logP: 4.48

SMILES: Cc1ccc(-c2cc(C(F)(F)F)ccc2N)cc1 [4′-methyl-5-(trifluoromethyl)biphenyl-2-amine]
- chromatographic logP: 3.98
